Where two headings read alike, the source gives them in different places. Peptide text beside a SMILES is read from it. * marks the point of attachment. Hydrocinnamoyl = O=C(CCc1ccccc1)*
How the values were obtained:
[1] = target: human α-thrombin (Homo sapiens, UniProt P00734); experiment: Thrombin assay: inhibition of chromogenic substrate (Pefachrome t-PA) hydrolysis; format: biochemical; conditions: purified human α-thrombin 0.25 nM, substrate 300 µM, 30 minute incubation, HBSA pH 7.5
Protocol: (§1) In the assays for thrombin, factor Xa and plasmin, a chromogenic synthetic substrate is added to a solution containing test compound and the enzyme of interest and the residual catalytic activity of that enzyme is determined spectrophometrically. The IC50 of compound is determined from the substrate turnover. […] The buffer used for all assays was HBSA (10 mM HEPES, pH 7.5, 150 mM sodium chloride, 0.1% bovine serum albumin). […] Following a 30 minute incubation at ambient temperature, 50 µL of the substrate at the concentrations specified below, was added to the wells yielding a final total volume of 200 µL.

[2] = target: human plasmin (Homo sapiens, UniProt P00747); experiment: Plasmin assay: inhibition of chromogenic substrate (S-2251) hydrolysis; format: biochemical; conditions: purified human plasmin 1.0 nM, substrate 300 µM, 30 minute incubation, HBSA pH 7.5
Protocol: as §1, with “μL” for “µL”, “μL. […] Plasmin catalytic activity was determined using the chromogenic substrate, […] dihydrochloride], which was obtained from Kabi Diagnostica.” for “µL.”

[3] = target: T1, Human factor Xa (Homo sapiens, UniProt P00742); experiment: Factor Xa assay: inhibition of chromogenic substrate (S2765) hydrolysis; format: biochemical; conditions: human factor Xa 0.5 nM, substrate 250 µM, 30 minute incubation, HBSA pH 7.5
T1 construct: Human factor Xa was prepared from purified human factor X obtained from Enzyme Research Laboratories; purchased Enzyme Research Laboratories
Protocol: as §1, with “μL” for “µL”, “μL. […] Factor Xa catalytic activity was determined using the substrate, S2765 (N-α-benzyloxycarbonyl-[…]-nitroanilide dihydrochloride) which was obtained from Kabi Diagnostica. […] Human factor Xa was prepared from purified human factor X obtained from Enzyme Research Laboratories according to the method described by Bock, P.E. et al., Archives of Biochem. Biophys. […] The enzyme was diluted into HBSA prior to the assay in which the final concentration was 0.5 nM.” for “µL.”

[4] = system: FeCl3-induced platelet-dependent arterial thrombosis; conditions: rat, [Isolated clot/(Intact segment-Empty segment)] X 100, mean ± S.E.M., control 68.65±3.75
Protocol: In this model a platelet-rich, occlusive thrombus is formed in a segment of the rat carotid artery treated with a fresh solution of FeCl3 absorbed to a piece of filter paper. […] The effect of a test compound on the incidence of occlusive thrombus formation following the application of the FeCl3 is monitored by ultrasonic flowtometry and is used as the primary end point.
Male Harlan Sprague Dawley rats (420-450 g) were acclimated at least 72 hours prior to use and fasted for 12 hours prior to surgery with free access to water. The animals were prepared, anesthetized with Nembutal with catheters for blood pressure monitoring, drug and anesthesia delivery being implanted as described above. The left carotid artery was isolated by making a midline cervical incision followed by blunt dissection and spreading techniques to separate a 2 cm segment of the vessel from the carotid sheath. A silk suture is inserted under the proximal and distal ends of the isolated vessel to provide clearance for the placement of a ultrasonic flow probe (Transonic) around the proximal end of the vessel. The probe is then secured with a stationary arm.
The test compounds were administered as described above after placement of the flow probe and stabilization of the preparation for a period of 30 min prior to the thrombogenic stimulus. At t=0, a 3mm diameter piece of filter paper (Whatman #3) soaked with 10 mL of a 35% solution of fresh FeCl3 (made up in water) was applied the segment of isolated carotid artery distal to the flow probe. Blood pressure, blood flow, heart rate, and respiration were monitored for 60 minutes.
The incidence of occlusion (defined as the attainment of zero blood flow) was recorded as the primary end point. Following the 60 minute observation period the flow probe was removed and the area cleared of all excess fluid. The distal and proximal sutures were tied off and arterial clamps placed on the far proximal and distal ends of the segment. […] The segment was reweighed following removal of the clot and the difference recorded as total % clot weight. […]

Sequence of human plasmin (P00747 581-810 limits assumed): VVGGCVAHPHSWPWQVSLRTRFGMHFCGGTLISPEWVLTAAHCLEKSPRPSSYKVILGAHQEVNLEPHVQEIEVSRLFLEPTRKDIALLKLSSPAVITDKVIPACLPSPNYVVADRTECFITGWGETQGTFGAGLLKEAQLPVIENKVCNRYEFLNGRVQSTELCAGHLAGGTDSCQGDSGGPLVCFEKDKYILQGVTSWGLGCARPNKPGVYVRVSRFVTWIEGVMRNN
Sequence of human plasmin (P00747 97-580 partner limits assumed): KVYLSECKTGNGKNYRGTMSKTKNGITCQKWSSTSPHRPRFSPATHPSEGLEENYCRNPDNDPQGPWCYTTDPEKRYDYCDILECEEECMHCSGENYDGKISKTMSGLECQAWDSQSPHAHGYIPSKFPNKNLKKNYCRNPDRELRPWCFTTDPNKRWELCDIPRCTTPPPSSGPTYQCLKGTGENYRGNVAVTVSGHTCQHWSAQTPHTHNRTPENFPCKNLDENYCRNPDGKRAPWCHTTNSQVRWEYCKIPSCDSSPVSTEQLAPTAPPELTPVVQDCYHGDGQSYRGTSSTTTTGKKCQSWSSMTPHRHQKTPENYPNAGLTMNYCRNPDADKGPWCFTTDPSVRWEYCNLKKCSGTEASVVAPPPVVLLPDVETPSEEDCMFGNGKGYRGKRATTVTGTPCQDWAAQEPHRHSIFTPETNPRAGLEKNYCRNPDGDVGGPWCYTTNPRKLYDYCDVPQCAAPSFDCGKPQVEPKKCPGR
T1 sequence (P00742 235-488 limits assumed): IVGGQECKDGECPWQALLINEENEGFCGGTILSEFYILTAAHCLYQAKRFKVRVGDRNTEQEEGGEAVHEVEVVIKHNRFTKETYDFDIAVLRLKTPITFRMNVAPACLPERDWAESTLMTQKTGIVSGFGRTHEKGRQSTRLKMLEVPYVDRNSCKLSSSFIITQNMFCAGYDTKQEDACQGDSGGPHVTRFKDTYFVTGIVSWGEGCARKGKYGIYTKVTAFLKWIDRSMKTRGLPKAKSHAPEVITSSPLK
T1 sequence (P00742 41-179 partner limits assumed): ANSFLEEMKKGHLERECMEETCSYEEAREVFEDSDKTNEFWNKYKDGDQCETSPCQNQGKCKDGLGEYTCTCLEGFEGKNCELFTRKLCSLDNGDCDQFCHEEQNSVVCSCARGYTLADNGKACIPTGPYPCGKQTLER

3-tetrazolyl-2-(4-methylvaleroylamido) propionoyl-L-prolyl-L-argininal [4MeV-Ala(Tzl)-Pro-Arg-al]
IC50 [1]: 88 nM | IC50 [2]: 500 nM | IC50 [3]: 64.5 nM

CCCC(CCC)C(=O)N[C@@H](CC(=O)OC)C(=O)N1CCC[C@H]1C(=O)N[C@H](C=O)CCCNC(=N)N [2PrPent-Asp(OCH3)-Pro-Arg-al]
IC50 [2]: 326 nM | IC50 [3]: 293 nM

CCCC(CCC)C(=O)N[C@@H](CC(=O)O)C(=O)N1CCC[C@H]1C(=O)N[C@H](C=O)CCCNC(=N)N [2PrPent-Asp-Pro-Arg-al, N-(2-propylpentanoyl)-L-aspartyl-L-prolyl-L-argininal]
IC50 [1]: 8.5 nM | IC50 [2]: 283 nM | IC50 [3]: 173 nM

CC(C)CCC(=O)N[C@@H](CC(=O)O)C(=O)N1CCC[C@H]1C(=O)N[C@H](C=O)CCCNC(=N)N [4MeV-Asp-Pro-Arg-al, N-(4-methylpentanoyl)-L-aspartyl-L-prolyl-L-argininal]
IC50 [1]: 147 nM | IC50 [2]: 843 nM | IC50 [3]: 57 nM

N=C(N)NCCC[C@@H](C=O)NC(=O)[C@@H]1CCCN1C(=O)[C@H](CC(=O)O)NC(=O)CC1CCCCC1 [ChxAc-Asp-Pro-Arg-al, N-(1-cyclohexylacetyl)-L-aspartyl-L-prolyl-L-argininal]
IC50 [1]: 53.9 nM | IC50 [2]: 140 nM | IC50 [3]: 130 nM

N=C(N)NCCC[C@@H](C=O)NC(=O)[C@@H]1CCCN1C(=O)[C@H](CC(=O)O)NC(=O)CCC1CCCCC1 [ChxPA-Asp-Pro-Arg-al, N-(3-cyclohexanepropionyl)-L-aspartyl-L-prolyl-L-argininal]
IC50 [1]: 52.9 nM | IC50 [2]: 830 nM | IC50 [3]: 31 nM

COC(=O)C[C@H](NC(=O)CCc1ccccc1)C(=O)N1CCC[C@H]1C(=O)N[C@H](C=O)CCCNC(=N)N [HCA-Asp(OCH3)-Pro-Arg-al, N-(3-phenylpropanoyl)-L-aspartyl-β-(methyl ester)-L-prolyl-L-argininal] (Hydrocinnamoyl-Asp(OMe)-Pro-Arg-aldehyde)
IC50 [1]: 43.7 nM | IC50 [2]: 546 nM | IC50 [3]: 213 nM

N-(3-phenylpropanyl)-L-aspartyl-L-prolyl-L-argininal [HCA-Asp-Pro-Arg-al]
Clot Size ([4]; Group1: 25µg/kg/min i.v. infusion): 48.38±24.71% | Clot Size ([4]; Group2: 50µg/kg/min i.v. infusion, p<0.01 vs Control): 22.38±21.0 % | Clot Size ([4]; Group3: 100µg/kg/min i.v. infusion, p<0.01 vs Control): 3.38±5.44 % | IC50 [1]: 234 nM | IC50 [2]: 326 nM | IC50 [3]: 91.5 nM

N-Boc-D-phenylalanyl-L-aspartyl-L-prolyl-L-argininal [Boc-(D-Phe)-Pro-Arg-al, reference compound]
IC50 [1]: 4.6 nM | IC50 [2]: 1000 nM

— patent publication EP0627929B1, “INHIBITORS OF THROMBOSIS” (CORVAS INTERNATIONAL, INC., priority 1992, dated 1993)
